Source: US10513694B2, “Thienopyrrole compounds and uses thereof” (PROMEGA CORPORATION, priority 2015, dated 2019)
“Also recorded” adds a separate entry of the source.

Legend:
purified Nluc enzyme = target: T1, purified Nluc enzyme (Oplophorus gracilirostris, UniProt Q9GV45, A31E/A60N/A81I/F95D/I117V/K70R/L54V/L99Q/M102K/N193R/P142E/Q151K/Q38R/Q45L/V71I/Y165I); assay type: biochemical; settings: titration up to 100 μM final; RT 2 hrs; pro-substrate PBI-4442 + DTT
T1 construct: purchased Promega Corporation
Procedure: In a Corning 3570 assay plate, purified Nluc enzyme (Promega Corporation), 20 mM DTT, and an Nluc pro-substrate (PBI-4442, which is described in US Patent Publication No. 2013/0130289), which is converted to an Nluc substrate upon reduction with DTT, was added. Compound titrations of JRW-0004, JRW-0013, JRW-0006, JRW-0042, JRW-0138, and JRW-0147 were then made (1:2 serial dilution in PBS, 11 points plus no inhibitor control, starting at 200 μM; 100 μM final concentration in reaction). Compound titrations were added in equal volume to the wells of the assay plate. The reactions were incubated at RT for 2 hrs, and luminescence was measured on Tecan M1000 Pro plate reader. Half-maximal inhibitor (thienopyrrole compound) concentrations (IC50s) were determined using GraphPad Prism 6.03.

[1] = system: firefly luciferase, e.g., ULTRAGLO® luciferase; test: Specificity of inhibition: firefly luciferase activity; assay type: biochemical; settings: 1 μM luciferin in Luciferase Detection Reagent; RT 2 hrs
Procedure: (§1) The following example describes the specificity of disclosed thienopyrrole compounds, JRW-0004, JRW-0013, JRW-0006, JRW-0042, JRW-0138, and JRW-0147, to inhibit Nluc luciferase activity versus firefly luciferase activity, e.g., ULTRAGLO® luciferase. In a Corning 3570 assay plate, a solution containing 1 μM luciferin in Luciferase Detection Reagent (Promega Corporation V865/859) was added to the assay wells. An equal volume of titrations the thienopyrrole compounds, JRW-0004, JRW-0013, JRW-0006, JRW-0042, JRW-0138, and JRW-0147 were then added to the wells. The reactions were incubated at RT for 2 hrs, and luminescence was measured on Tecan M1000 Pro plate reader.

NANOLUC® enzyme = NANOLUC® enzyme (Oplophorus gracilirostris, UniProt Q9GV45, A31E/A60N/A81I/F95D/I117V/K70R/L54V/L99Q/M102K/N193R/P142E/Q151K/Q38R/Q45L/V71I/Y165I); test: Inhibitor IC50 determination (NANOLUC enzyme, furimazine); assay type: biochemical; settings: IC50 (uM), 0.4 ng/ml NANOLUC enzyme, final furimazine 10 uM (at Km)
Procedure: The following example provides the IC50 values for the compounds disclosed herein. See Table 5 NANOLUC® enzyme was diluted to 0.4 ng/ml in CO2 independent media+10% FBS to make the detection reagent. A 3× dilution series of each inhibitor was then made in the detection reagent. A “no inhibitor” control was also made for each sample. 50 ul of each inhibitor dilution was mixed with 50 ul of NanoGlo buffer containing 20 uM furimazine. (Final furimazine concentration is 10 uM which is at Km.), and luminescence measured. Each sample was normalized to the “no inhibitor” control. The […] values were then determined using GraphPad Prism (log [inhibitor] vs. normalized response).

Nluc luciferase = Nluc luciferase (Oplophorus gracilirostris, UniProt Q9GV45, A31E/A60N/A81I/F95D/I117V/K70R/L54V/L99Q/M102K/N193R/P142E/Q151K/Q38R/Q45L/V71I/Y165I); test: Inhibition of purified Nluc, dose and time dependence; assay type: biochemical; settings: pro-substrate PBI-4442, DTT, TERGITOL, RT, various time points
Procedure: A solution of purified Nluc and an Nluc pro-substrate (PBI-4442, which is described in US 2013/0130289), which is converted to an Nluc substrate upon reduction with DTT, were prepared in PBS buffer, pH 7.5. A 40 mM solution of DTT in PBS, pH 7.5 containing 1% TERGITOL was also prepared. Titrations of the thienopyrrole compounds JRW-0004, WZ141-88, WZ141-86, WZ141-74, WZ141-84, WZ141-89, WZ141-90, and WZ141-91 in the buffer containing DTT and TERGITOL were then prepared. An equal volume of the Nluc/pro-substrate solution was added to the thienopyrrole compound titrations in wells of an assay plate. The reactions were incubated at RT, and luminescence was measured at various time points on the Tecan M100 Pro plate reader (integration time 200 ms). IC50 values were determined using GraphPad Prism 6.03.

Nluc = Nluc (Oplophorus gracilirostris, UniProt Q9GV45, A31E/A60N/A81I/F95D/I117V/K70R/L54V/L99Q/M102K/N193R/P142E/Q151K/Q38R/Q45L/V71I/Y165I); test: Specificity of inhibition of Nluc luciferase: Nluc; assay type: biochemical
UltraGlo luciferase = test: Specificity of inhibition of Nluc luciferase: UltraGlo luciferase; assay type: biochemical, firefly; settings: RT 2 hrs
Procedure: as §1, with “JRW-0251, JRW-0344,” for “JRW-0004, JRW-0013, JRW-0006, JRW-0042, JRW-0138,”

Nluc, sequence (Q9GV45 28-196 with tags or gaps with the stated changes limits assumed): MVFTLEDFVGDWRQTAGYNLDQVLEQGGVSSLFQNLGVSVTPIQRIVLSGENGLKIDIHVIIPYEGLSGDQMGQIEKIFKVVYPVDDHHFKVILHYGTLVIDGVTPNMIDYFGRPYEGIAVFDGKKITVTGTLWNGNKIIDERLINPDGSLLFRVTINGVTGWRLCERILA
NANOLUC® enzyme, sequence (Q9GV45 28-196 with tags or gaps with the stated changes limits assumed): as above
Nluc luciferase, sequence (Q9GV45 28-196 with tags or gaps with the stated changes limits assumed): as above
T1 sequence (Q9GV45 28-196 with tags or gaps with the stated changes limits assumed): as above

CCN(C(=O)Cn1c(C(=O)NC2CCCCC2)cc2sccc21)c1cccc(C)c1 [JRW-0006, N-cyclohexyl-4-(2-(ethyl(m-tolyl)amino)-2-oxoethyl)-4H-thieno[3,2-b]pyrrole-5-carboxamide]
Inhibition of purified Nluc enzyme (FIG. 2) (purified Nluc enzyme): capable of inhibiting purified Nluc enzyme
Inhibition of firefly luciferase activity (FIG. 3) [1]: do not inhibit firefly luciferase activity; also recorded: did not inhibit the firefly luciferase activity
IC50 (NANOLUC® enzyme): 0.26 µM

CCN(C(=O)Cn1c(C(=O)NC2CCCC2)cc2sccc21)c1cccc(C)c1 [WZ-141-88, N-cyclopentyl-4-(2-(ethyl(m-tolyl)amino)-2-oxoethyl)-4H-thieno[3,2-b]pyrrole-5-carboxamide]
Inhibition of Nluc luciferase, dose and time dependence (FIGS. 4-6) (Nluc luciferase): inhibit Nluc luciferase in a dose- and time-dependent manner
IC50 (NANOLUC® enzyme): 0.54 µM

CCN(C(=O)Cn1c(C(=O)O)cc2sccc21)c1cccc(C)c1 [WZ-141-74, 4-(2-(ethyl(m-tolyl)amino)-2-oxoethyl)-4H-thieno[3,2-b]pyrrole-5-carboxylic acid]
Inhibition of Nluc luciferase, dose and time dependence (FIGS. 4-6) (Nluc luciferase): inhibit Nluc luciferase in a dose- and time-dependent manner
IC50 (NANOLUC® enzyme): 16.4 µM

CCN(C(=O)Cn1c(C(=O)N2CCN(C)CC2)cc2sccc21)c1cccc(C)c1 [WZ-141-91, N-ethyl-2-(5-(4-methylpiperazine-1-carbonyl)-4H-thieno[3,2-b]pyrrol-4-yl)-N-(m-tolyl)acetamide]
Inhibition of Nluc luciferase, dose and time dependence (FIGS. 4-6) (Nluc luciferase): inhibit Nluc luciferase in a dose- and time-dependent manner

CCN(C(=O)Cn1c(C(=O)N[C@H]2CC[C@H](C(=O)NCCCCCCNC(=O)[C@H](CC(=O)O)NC(=O)[C@H](CC(=O)O)NC(=O)[C@H](CC(=O)O)NC(C)=O)CC2)cc2sccc21)c1cccc(C)c1 [JRW-0251, (11S,14S,17S)-17-acetamido-11,14-bis(carboxymethyl)-1-(trans-4-(4-(2-(ethyl(m-tolyl)amino)-2-oxoethyl)-4H-thieno[3,2-b]pyrrole-5-carboxamido)cyclohexyl)-1,10,13,16-tetraoxo-2,9,12,15-tetraazanonadecan-19-oic acid]
Nluc, Avg (luminescence) (Nluc; [cmpd] 0.1953125 μM): 108634
Nluc, S/B (Nluc; [cmpd] 0.1953125 μM): 0.95
Nluc, Avg (luminescence) (Nluc; [cmpd] 0.390625 μM): 106075
Nluc, S/B (Nluc; [cmpd] 0.390625 μM): 0.93
Nluc, Avg (luminescence) (Nluc; [cmpd] 0.78125 μM): 105881
Nluc, S/B (Nluc; [cmpd] 0.78125 μM): 0.92
Nluc, Avg (luminescence) (Nluc; [cmpd] 1.5625 μM): 96602
Nluc, S/B (Nluc; [cmpd] 1.5625 μM): 0.84
Nluc, Avg (luminescence) (Nluc; [cmpd] 3.125 μM): 86555
Nluc, S/B (Nluc; [cmpd] 3.125 μM): 0.76
Nluc, Avg (luminescence) (Nluc; [cmpd] 6.25 μM): 81193
Nluc, S/B (Nluc; [cmpd] 6.25 μM): 0.71
Nluc, Avg (luminescence) (Nluc; [cmpd] 12.5 μM): 68664
Nluc, S/B (Nluc; [cmpd] 12.5 μM): 0.60
Nluc, Avg (luminescence) (Nluc; [cmpd] 25 μM): 55210
Nluc, S/B (Nluc; [cmpd] 25 μM): 0.48
Nluc, Avg (luminescence) (Nluc; [cmpd] 50 μM): 44219
Nluc, S/B (Nluc; [cmpd] 50 μM): 0.39
Nluc, Avg (luminescence) (Nluc; [cmpd] 100 μM): 34389
Nluc, S/B (Nluc; [cmpd] 100 μM): 0.30
Nluc, Avg (luminescence) (Nluc; [cmpd] 200 μM): 23311
Nluc, S/B (Nluc; [cmpd] 200 μM): 0.20
IC50 (NANOLUC® enzyme): 0.077 µM
Inhibition of firefly luciferase activity (Table 3) (UltraGlo luciferase): did not inhibit the firefly luciferase activity
UltraGlo luciferase, Avg (luminescence) (UltraGlo luciferase; [cmpd] 0.1953125 μM): 83059
UltraGlo luciferase, S/B (UltraGlo luciferase; [cmpd] 0.1953125 μM): 0.98
UltraGlo luciferase, Avg (luminescence) (UltraGlo luciferase; [cmpd] 0.390625 μM): 82723
UltraGlo luciferase, S/B (UltraGlo luciferase; [cmpd] 0.390625 μM): 0.98
UltraGlo luciferase, Avg (luminescence) (UltraGlo luciferase; [cmpd] 0.78125 μM): 82812
UltraGlo luciferase, S/B (UltraGlo luciferase; [cmpd] 0.78125 μM): 0.98
UltraGlo luciferase, Avg (luminescence) (UltraGlo luciferase; [cmpd] 1.5625 μM): 82370
UltraGlo luciferase, S/B (UltraGlo luciferase; [cmpd] 1.5625 μM): 0.98
UltraGlo luciferase, Avg (luminescence) (UltraGlo luciferase; [cmpd] 3.125 μM): 81125
UltraGlo luciferase, S/B (UltraGlo luciferase; [cmpd] 3.125 μM): 0.96
UltraGlo luciferase, Avg (luminescence) (UltraGlo luciferase; [cmpd] 6.25 μM): 83665
UltraGlo luciferase, S/B (UltraGlo luciferase; [cmpd] 6.25 μM): 0.99
UltraGlo luciferase, Avg (luminescence) (UltraGlo luciferase; [cmpd] 12.5 μM): 83569
UltraGlo luciferase, S/B (UltraGlo luciferase; [cmpd] 12.5 μM): 0.99
UltraGlo luciferase, Avg (luminescence) (UltraGlo luciferase; [cmpd] 25 μM): 83382
UltraGlo luciferase, S/B (UltraGlo luciferase; [cmpd] 25 μM): 0.99
UltraGlo luciferase, Avg (luminescence) (UltraGlo luciferase; [cmpd] 50 μM): 81930
UltraGlo luciferase, S/B (UltraGlo luciferase; [cmpd] 50 μM): 0.97
UltraGlo luciferase, Avg (luminescence) (UltraGlo luciferase; [cmpd] 100 μM): 79556
UltraGlo luciferase, S/B (UltraGlo luciferase; [cmpd] 100 μM): 0.94
UltraGlo luciferase, Avg (luminescence) (UltraGlo luciferase; [cmpd] 200 μM): 77788
UltraGlo luciferase, S/B (UltraGlo luciferase; [cmpd] 200 μM): 0.92

COC(=O)c1cc2sccc2n1CC(=O)N(Cc1ccccc1)c1cccc(C)c1 [WZ-141-86, methyl 4-(2-(benzyl(m-tolyl)amino)-2-oxoethyl)-4H-thieno[3,2-b]pyrrole-5-carboxylate]
Inhibition of Nluc luciferase, dose and time dependence (FIGS. 4-6) (Nluc luciferase): inhibit Nluc luciferase in a dose- and time-dependent manner

CCN(C(=O)Cn1c(C(=O)NC)cc2sccc21)c1cccc(C)c1 [WZ-141-84, 4-(2-(ethyl(m-tolyl)amino)-2-oxoethyl)-N-methyl-4H-thieno[3,2-b]pyrrole-5-carboxamide]
Inhibition of Nluc luciferase, dose and time dependence (FIGS. 4-6) (Nluc luciferase): inhibit Nluc luciferase in a dose- and time-dependent manner
IC50 (NANOLUC® enzyme): 5.5 µM

CCN(C(=O)Cn1c(C(=O)NCc2ccncc2)cc2sccc21)c1cccc(C)c1 [WZ-141-89, 4-(2-(ethyl(m-tolyl)amino)-2-oxoethyl)-N-(pyridin-4-ylmethyl)-4H-thieno[3,2-b]pyrrole-5-carboxamide]
Inhibition of Nluc luciferase, dose and time dependence (FIGS. 4-6) (Nluc luciferase): inhibit Nluc luciferase in a dose- and time-dependent manner

CCN(C(=O)Cn1c(C(=O)NCCCN2CCOCC2)cc2sccc21)c1cccc(C)c1 [WZ-141-90, 4-(2-(ethyl(m-tolyl)amino)-2-oxoethyl)-N-(3-morpholinopropyl)-4H-thieno[3,2-b]pyrrole-5-carboxamide]
Inhibition of Nluc luciferase, dose and time dependence (FIGS. 4-6) (Nluc luciferase): inhibit Nluc luciferase in a dose- and time-dependent manner
